The results in this text go back to patent US4556671A, “Pharmaceutical formulations” (Burroughs Wellcome Co., priority 1981, dated 1985).

In brackets after ≈: the same amount, converted by molar mass. Read-outs that look alike come from different tables or passages of the source.

One assay deals with Leukocyte Migration. In words: Carrageenin-impregnated sponge inflammatory exudates: leukocyte migration. It counts as in vivo, rat. Particulars: 24 hours. On the procedure: (§1) The sponges were removed after 24 hours, immersed in 5 ml herparinised saline and squeezed until dry.
The next assay relates to Prostaglandin. In words: Carrageenin-impregnated sponge inflammatory exudates: prostaglandin concentration. It is filed as in vivo, rat. Particulars: 24 hours. The method, then: as §1
The test system of the next assay is Female Wistar rats. In words: Acute Anti-inflammatory Activity: Carrageenin Test. It counts as in vivo, rat. The method, then: Female Wistar rats (100-150 g, groups of 5) were starved for approximately 24 hours prior to testing and througout the experimental period. Water was available ad. lib. […] A control group received Celacol alone. Immediately after dosing, each rat received, in a plantar area of the left hind foot, an injection of 0.1 ml of the supernatant of a 30 mg/ml suspension of carrageenin in 0.9% saline. The thickness of the foot was measured with calipers 1 hour and 4 hours after the carrageenin injection. The increases in foot thickness during this time was compared with those of the control group and the percentage reduction in swelling calculated for each tested group.

The next assay deals with mice. In words: PBQ-Induced Algesia. It counts as in vivo. Particulars: Mus musculus, po, read-out: ED50 (reduction of number of stretches by 50%). On the procedure:
An irritant, p-phenylbenzquinone (PBQ), was administered to mice intraperitoneally at a dose of 5 mg/kg to elicit a stretch-reflex in the animal. The number of stretches in 25 minute period were counted.

A further assay concerns the target lipoxygenase. In words: Inhibition of Lipoxygenase (enzyme assay, Blackwell and Flower). It is filed as biochemical.
The next assay concerns HETE. As to the kind of experiment: Production of HETE (enzyme assay, Blackwell and Flower). Particulars: 100 μg/ml. It counts as biochemical.
The test system of assay [1] is cyclo-oxygenase and lipoxygenase.
Setting [2] is: rat, oral, suspension in 0.25% Celacol, reduction in foot swelling 1 to 4 hours after carrageenin, read-out: ED50.
[3] abbreviates: 30 mins prior to PBQ 5 mg/kg intraperitoneally, stretches in 25 minutes.

In the case of `COc1ccc2c(c1)c(CC(=O)O)c(C)n2C(=O)c1ccc(Cl)cc1` [Indomethacin], in the assay with Leukocyte Migration (4 mg/kg p.o., s.e.m), the “Inhibition of Leukocyte Migration” value was 26% ± 7. The “Reduction of Prostaglandin Concentration” value in the assay on Prostaglandin (4 mg/kg p.o.) turned out to be 98%.
As a reminder, the ED50 is the midpoint of the dose-response relation. For `CC(=O)Oc1ccccc1C(=O)O` [Aspirin, reference compound], the ED50 with Female Wistar rats (Rattus norvegicus, po, 4 h) amounted to 70 mg/kg; with mice, 70 mg/kg.
For `CCCCC1C(=O)N(c2ccccc2)N(c2ccccc2)C1=O` [Phenylbutazone, reference compound], in the assay on Female Wistar rats (setting [2]), the ED50 is 22 mg/kg.
Turning to `NC1=NN(c2ccccc2)CC1` [Example 7, 3-Amino-1-phenyl-2-pyrazoline], the ED50 in the assay on Female Wistar rats (setting [2]) turned out to be 60 mg/kg.
On the same count and under the same terms, the value for `CC1CC(N)=NN1c1ccc(Cl)cc1.Cl` (centres unmarked) [Example 24, 3-Amino-1-p-chlorophenyl-5-methyl-2-pyrazoline hydrochloride] was 36 mg/kg.
On to `NC1=NN(c2cccc(C(F)(F)F)c2)CC1` [Example 1, 3-Amino-1-(m-trifluoromethylphenyl)pyrazol-2-ine], for which the ED50 worked out at 11 mg/kg in the assay with Female Wistar rats (setting [2]) and 20.6 mg/kg in the assay with mice (setting [3]). Further, the “IC50 (lipoxygenase)” value against lipoxygenase was 0.72 µg/mL (≈ 3.14 µM). In the assay on HETE, the “reduction of the production of HETE” value is “less than 20%”. Besides, the “Inhibition of Leukocyte Migration” value in the assay with Leukocyte Migration (50 mg/kg p.o., s.e.m) is on record as 73% ± 9. The “inhibition of cyclo-oxygenase and lipoxygenase activity (in words)” value in assay [1] is “equally active in inhibiting cyclo-oxygenase and lipoxygenase activity”. Moreover, the “doses at which cyclo-oxygenase and lipoxygenase are inhibited (in words)” value in assay [1] (compared with the other heterocyclic compounds of formula (I)) is recorded as “at doses substantially below those of the other heterocyclic compounds of formula (I)”.
Take `NC1=NN(c2ccc(Cl)cc2)CC1` [Example 6, 3-Amino-1-p-chlorophenyl-2-pyrazoline]: the ED50 in the assay with Female Wistar rats (setting [2]) stood at 22 mg/kg; with mice (setting [3]), 13 mg/kg.
Consider `C[C@@H]1C[C@H]2[C@@H]3CCC4=CC(=O)C=C[C@]4(C)[C@@]3(F)[C@@H](O)C[C@]2(C)[C@@]1(O)C(=O)CO` [Dexamethasone], for which the “Inhibition of Leukocyte Migration” value with Leukocyte Migration (0.1 mg/kg i.m., s.e.m) is given as 62% ± 17; with Leukocyte Migration (0.1 mg/kg p.o.) it was ~ 30%. Besides, the “Reduction of Prostaglandin Concentration” value in the assay on Prostaglandin (0.1 mg/kg i.m., s.e.m) is 64% ± 6; in the assay on Prostaglandin (0.1 mg/kg p.o.), ~ 30%.
